From PMC3918950 (Experimental eye research, 2013)

Columns and labels:
Y-79 cells = assay: Anti-proliferative activity; type: cell-based, human; details: for IC50: Homo sapiens, Y79, read-out: IC50 against retinoblastoma cells; for Reduction of IC50 value in the presence of moxifloxacin: Y-79, MTT, moxifloxacin 500 µM
IL-6 = assay: Pro-inflammatory cytokines assay, IL-6 release; type: cell-based, human; details: 48 h; for Reduction of IL-6 release in presence of moxifloxacin: moxifloxacin 500 µM
IL-8 = assay: Pro-inflammatory cytokines assay, IL-8 release; type: cell-based, human; details: 48 h; for Reduction of IL-8 release in presence of moxifloxacin: moxifloxacin 500 µM
MDR1 [1] = biological target: T1, MDR1 (Homo sapiens, UniProt P08183); assay: in vitro; details: MDCK-MDR1
MRP2 [2] = biological target: T2, MRP2 (Homo sapiens, UniProt Q92887); assay: in vitro; details: dog
MRP2 [3] = biological target: T2, MRP2; details: MDCK-MRP2; [14C]-erythromycin 0.25 µCi/mL; 30 min; in presence of MK571 50 µM
MRP2 [4] = biological target: T2, MRP2; assay: Bi-directional transport of moxifloxacin across MDCK-MRP2 cells; type: in vitro ADME
caspase-3 [5] = assay: Caspase-3 assay in Y-79 cells; type: cell-based, human
MDR1 [6] = biological target: T1, MDR1
MDR1 [7] = biological target: T1, MDR1; assay: in vitro; details: MDCK-MDR1, pH 7.4
in vitro = details: dog, MDCK, pH 7.4
MDR1 [8] = biological target: T1, MDR1; assay: cell-based
MRP2 [9] = biological target: T2, MRP2; assay: cell-based
MDR1 [10] = biological target: T1, MDR1; assay: Bidirectional transport of anticancer agents across MDCK-MDR1 cells; details: moxifloxacin 500 µM
MRP2 [11] = biological target: T2, MRP2; assay: Bidirectional transport of anticancer agents across MDCK-MRP2 cells; details: moxifloxacin 500 µM
MDR1 [12] = biological target: T1, MDR1; assay: Bi-directional transport of [14C]-erythromycin across MDCK-MDR1 cells; type: in vitro ADME; details: MDCK-MDR1, pH 7.4
MRP2 [13] = biological target: T2, MRP2; assay: Bi-directional transport of [14C]-erythromycin across MDCK-MRP2 cells; type: in vitro ADME; details: pH 7.4
caspase-3 [14] = details: read-out: Km (caspase-3 substrate); ref Anaspec, San Jose, CA; cited from earlier work
[15] = conclusion from uptake and bi-directional transport

T2 sequence (Q92887 whole entry): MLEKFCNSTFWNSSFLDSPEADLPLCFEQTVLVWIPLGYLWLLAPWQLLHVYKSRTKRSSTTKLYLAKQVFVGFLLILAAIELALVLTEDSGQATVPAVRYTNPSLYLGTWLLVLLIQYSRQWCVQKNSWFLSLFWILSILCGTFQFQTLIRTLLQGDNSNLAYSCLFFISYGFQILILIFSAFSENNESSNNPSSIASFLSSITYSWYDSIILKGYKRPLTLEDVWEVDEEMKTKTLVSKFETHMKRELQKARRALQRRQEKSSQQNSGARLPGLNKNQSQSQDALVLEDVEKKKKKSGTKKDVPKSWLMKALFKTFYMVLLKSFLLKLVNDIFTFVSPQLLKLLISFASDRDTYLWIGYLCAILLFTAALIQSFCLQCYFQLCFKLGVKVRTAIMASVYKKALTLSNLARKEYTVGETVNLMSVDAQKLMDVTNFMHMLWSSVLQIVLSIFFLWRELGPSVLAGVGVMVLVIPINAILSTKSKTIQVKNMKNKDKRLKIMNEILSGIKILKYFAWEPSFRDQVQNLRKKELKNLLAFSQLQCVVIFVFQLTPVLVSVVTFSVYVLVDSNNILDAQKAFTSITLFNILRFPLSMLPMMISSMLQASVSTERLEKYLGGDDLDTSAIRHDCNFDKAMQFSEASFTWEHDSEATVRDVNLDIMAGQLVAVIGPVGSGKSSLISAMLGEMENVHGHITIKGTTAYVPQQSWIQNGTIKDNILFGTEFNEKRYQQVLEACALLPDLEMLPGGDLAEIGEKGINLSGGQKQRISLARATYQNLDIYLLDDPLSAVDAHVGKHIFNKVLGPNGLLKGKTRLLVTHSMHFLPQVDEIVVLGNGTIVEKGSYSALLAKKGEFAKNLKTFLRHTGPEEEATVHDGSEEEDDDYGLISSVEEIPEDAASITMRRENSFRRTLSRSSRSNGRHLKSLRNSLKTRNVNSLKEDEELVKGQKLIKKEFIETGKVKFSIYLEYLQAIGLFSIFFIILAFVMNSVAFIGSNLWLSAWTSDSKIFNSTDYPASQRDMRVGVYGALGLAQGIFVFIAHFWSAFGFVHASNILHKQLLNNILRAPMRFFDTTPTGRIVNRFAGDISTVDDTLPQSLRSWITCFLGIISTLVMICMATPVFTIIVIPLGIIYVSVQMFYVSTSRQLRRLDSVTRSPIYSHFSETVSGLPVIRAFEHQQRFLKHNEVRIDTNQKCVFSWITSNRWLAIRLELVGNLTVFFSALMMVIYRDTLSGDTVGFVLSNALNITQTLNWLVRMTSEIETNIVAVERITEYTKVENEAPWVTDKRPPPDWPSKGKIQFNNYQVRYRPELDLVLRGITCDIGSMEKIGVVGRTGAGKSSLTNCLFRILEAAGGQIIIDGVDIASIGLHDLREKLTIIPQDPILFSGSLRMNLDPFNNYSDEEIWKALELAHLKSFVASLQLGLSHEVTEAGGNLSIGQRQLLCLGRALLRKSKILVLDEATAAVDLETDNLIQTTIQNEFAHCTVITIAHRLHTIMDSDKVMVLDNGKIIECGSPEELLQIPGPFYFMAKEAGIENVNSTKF
T1 sequence (P08183 whole entry): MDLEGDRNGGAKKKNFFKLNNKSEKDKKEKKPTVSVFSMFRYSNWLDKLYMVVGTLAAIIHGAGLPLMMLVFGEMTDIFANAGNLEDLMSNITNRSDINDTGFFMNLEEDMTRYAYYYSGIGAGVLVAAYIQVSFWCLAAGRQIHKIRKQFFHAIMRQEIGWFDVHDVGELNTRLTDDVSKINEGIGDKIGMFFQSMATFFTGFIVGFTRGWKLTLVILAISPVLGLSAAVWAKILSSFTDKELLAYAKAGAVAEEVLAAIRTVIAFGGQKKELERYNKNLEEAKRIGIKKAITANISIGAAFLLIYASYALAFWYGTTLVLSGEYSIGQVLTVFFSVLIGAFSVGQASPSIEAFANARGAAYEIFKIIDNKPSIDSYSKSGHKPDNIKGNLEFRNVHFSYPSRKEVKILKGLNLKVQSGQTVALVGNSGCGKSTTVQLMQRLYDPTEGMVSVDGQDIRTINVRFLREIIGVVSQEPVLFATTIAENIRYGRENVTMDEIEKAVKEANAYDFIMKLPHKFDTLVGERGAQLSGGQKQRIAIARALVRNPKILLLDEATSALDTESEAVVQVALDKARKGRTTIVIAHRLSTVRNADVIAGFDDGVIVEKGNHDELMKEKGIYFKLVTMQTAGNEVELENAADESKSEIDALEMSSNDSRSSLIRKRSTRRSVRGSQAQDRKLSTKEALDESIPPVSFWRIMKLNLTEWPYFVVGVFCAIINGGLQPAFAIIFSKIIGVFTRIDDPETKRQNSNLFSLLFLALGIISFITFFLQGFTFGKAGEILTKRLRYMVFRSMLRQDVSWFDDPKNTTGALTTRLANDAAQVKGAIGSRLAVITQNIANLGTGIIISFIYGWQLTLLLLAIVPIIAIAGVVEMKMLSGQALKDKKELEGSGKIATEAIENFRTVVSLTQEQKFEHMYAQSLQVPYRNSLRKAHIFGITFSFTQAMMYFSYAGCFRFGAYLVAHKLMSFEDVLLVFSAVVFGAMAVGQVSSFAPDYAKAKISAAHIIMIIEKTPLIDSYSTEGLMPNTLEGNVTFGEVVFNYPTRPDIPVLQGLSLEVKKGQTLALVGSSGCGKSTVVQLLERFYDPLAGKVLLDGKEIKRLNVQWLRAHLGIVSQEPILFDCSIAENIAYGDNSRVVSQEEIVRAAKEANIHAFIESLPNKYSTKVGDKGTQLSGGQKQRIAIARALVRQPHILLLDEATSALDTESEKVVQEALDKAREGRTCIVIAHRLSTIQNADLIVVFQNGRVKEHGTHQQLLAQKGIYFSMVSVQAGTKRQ

| Compound | Papp A→B at 0.5 µCi/mL (MDR1 [1]) | Papp B→A at 0.5 µCi/mL (MDR1 [1]) | Papp A→B at 0.5 µCi/mL (MRP2 [2]) | Papp B→A at 0.5 µCi/mL (MRP2 [2]) | IC50 (Y-79 cells) | Reduction of IC50 value in the presence of moxifloxacin (Y-79 cells) | Release of IL-6 (IL-6; anticancer agent 0.5 µg alone) | Reduction of IL-6 release in presence of moxifloxacin (IL-6; anticancer agent 0.5 µg) | Release of IL-6 (IL-6; anticancer agent 1.0 µg alone) | Reduction of IL-6 release in presence of moxifloxacin (IL-6; anticancer agent 1.0 µg) | Release of IL-8 (IL-8; anticancer agent 0.5 µg alone) | Reduction of IL-8 release in presence of moxifloxacin (IL-8; anticancer agent 0.5 µg) | Release of IL-8 (IL-8; anticancer agent 1.0 µg alone) | Reduction of IL-8 release in presence of moxifloxacin (IL-8; anticancer agent 1.0 µg) | also measured |
| --- | --- | --- | --- | --- | --- | --- | --- | --- | --- | --- | --- | --- | --- | --- | --- |
| COc1cc([C@@H]2c3cc4c(cc3[C@@H](O[C@@H]3O[C@@H]5CO[C@@H](C)O[C@H]5[C@H](O)[C@H]3O)[C@H]3COC(=O)[C@H]23)OCO4)cc(OC)c1O [Etoposide] | 3.57 ± 0.65 ×10⁻⁶ cm/s | 11.6 ± 1.78 ×10⁻⁶ cm/s | 37.8 ± 2.7 ×10⁻⁶ cm/s | 207 ± 17.4 ×10⁻⁶ cm/s | 27.1 µM | 13 fold | 105.20 ± 3.90 pg/mL | 1.3 fold | 151.40 ± 10.00 pg/mL | 1.4 fold | 191.90 ± 9.10 pg/mL | 1.60 fold | 286.60 ± 16.60 pg/mL | 1.28 fold | – |
| CN(C)C(=O)CCSC(SCCC(=O)O)c1cccc(/C=C/c2ccc3ccc(Cl)cc3n2)c1 (centres unmarked) [MK571] | – | – | – | – | – | – | – | – | – | – | – | – | – | – | Cellular accumulation of [14C]-erythromycin relative to control (MRP2 [3]): 273% |
| COc1c(N2C[C@@H]3CCCN[C@@H]3C2)c(F)cc2c(=O)c(C(=O)O)cn(C3CC3)c12 [Moxifloxacin] | – | – | – | – | – | – | – | – | – | – | – | – | – | – | Increase of AP-BL permeability of moxifloxacin (MRP2 [4]; MDCK-MRP2, in presence of MK571): 2.10 times; Substrate of MRP2 efflux transporter (MRP2 [4]; [15]): substrate; Papp A→B at 500 µM (MRP2 [4]; human, pH 7.4): 0.78 ± 0.13 ×10⁻⁶ cm/s; Papp B→A at 500 µM (MRP2 [4]; human, pH 7.4): 1.97 ± 0.41 ×10⁻⁶ cm/s; Caspase-3 activity, moxifloxacin alone (caspase-3 [5]): slightly elevated; Increase of AP-BL permeability of moxifloxacin (MDR1 [6]; MDCK-MDR1, in presence of GF120918): 2.80 times; Substrate of MDR1 efflux transporter (MDR1 [6]; [15]): substrate; Papp A→B at 500 µM (MDR1 [7]): 5.81 ± 0.44 ×10⁻⁶ cm/s; Papp B→A at 500 µM (MDR1 [7]): 20.5 ± 2.26 ×10⁻⁶ cm/s; Papp A→B at 500 µM (in vitro): 5.7 ± 0.04 ×10⁻⁶ cm/s; Papp B→A at 500 µM (in vitro): 7.4 ± 0.14 ×10⁻⁶ cm/s; IC50 (MDR1 [8]): 217 µM; IC50 (MRP2 [9]): 187 µM |
| CC[C@H]1OC(=O)[C@H](C)[C@@H](O[C@H]2C[C@@](C)(OC)[C@@H](O)[C@H](C)O2)[C@H](C)[C@@H](O[C@@H]2O[C@H](C)C[C@H](N(C)C)[C@H]2O)[C@](C)(O)C[C@@H](C)C(=O)[C@H](C)[C@@H](O)[C@]1(C)O [[^14C]-erythromycin, Erythromycin] | – | – | – | – | – | – | – | – | – | – | – | – | – | – | Papp A→B at 3 h, 0.5 µCi/mL (MDR1 [12]): 5.44 ± 0.52 ×10⁻⁶ cm/s; Papp B→A at 3 h, 0.5 µCi/mL (MDR1 [12]): 18.8 ± 1.05 ×10⁻⁶ cm/s; Papp B→A at 3 h, 0.5 µCi/mL (MRP2 [13]): 2.7 ± 0.18 ×10⁻⁶ cm/s |
| Ac-DEVD-AMC | – | – | – | – | – | – | – | – | – | – | – | – | – | – | Km (caspase-3 [14]): 9.7 µM |

Continued, in another order:

| Papp A→B at 0.5 µCi/mL (MDR1 [1]) | Papp B→A at 0.5 µCi/mL (MDR1 [1]) | Papp A→B at 0.5 µCi/mL (MRP2 [2]) | Papp B→A at 0.5 µCi/mL (MRP2 [2]) | Compound | IC50 (Y-79 cells) | Reduction of IC50 value in the presence of moxifloxacin (Y-79 cells) | Release of IL-6 (IL-6; anticancer agent 0.5 µg alone) | Reduction of IL-6 release in presence of moxifloxacin (IL-6; anticancer agent 0.5 µg) | Release of IL-6 (IL-6; anticancer agent 1.0 µg alone) | Reduction of IL-6 release in presence of moxifloxacin (IL-6; anticancer agent 1.0 µg) | Release of IL-8 (IL-8; anticancer agent 0.5 µg alone) | Reduction of IL-8 release in presence of moxifloxacin (IL-8; anticancer agent 0.5 µg) | Release of IL-8 (IL-8; anticancer agent 1.0 µg alone) | Reduction of IL-8 release in presence of moxifloxacin (IL-8; anticancer agent 1.0 µg) | also measured |
| --- | --- | --- | --- | --- | --- | --- | --- | --- | --- | --- | --- | --- | --- | --- | --- |
| 0.75 ± 0.03 ×10⁻⁶ cm/s | 3.5 ± 0.28 ×10⁻⁶ cm/s | 8.06 ± 0.66 ×10⁻⁶ cm/s | 24.8 ± 2.44 ×10⁻⁶ cm/s | CC[C@@]1(O)C(=O)OCc2c1cc1n(c2=O)Cc2cc3c(CN(C)C)c(O)ccc3nc2-1 [Topotecan] | 27.9 µM | 10 fold | 156.90 ± 2.70 pg/mL | 1.3 fold | 157.50 ± 8.80 pg/mL | 1.2 fold | 157.70 ± 12.60 pg/mL | 1.48 fold | 239.20 ± 13.90 pg/mL | 1.30 fold | efflux ratio at 0.5 µCi/mL (MDR1 [1]): 4.63; efflux ratio at 0.5 µCi/mL (MRP2 [2]): 3.07; Elevation of AP-BL permeability by moxifloxacin (MDR1 [10]): 2.08 fold; Elevation of AP-BL permeability by moxifloxacin (MRP2 [11]): 1.57 fold |
| 1.55 ± 0.03 ×10⁻⁶ cm/s | 10.2 ± 0.47 ×10⁻⁶ cm/s | 13.5 ± 3.24 ×10⁻⁶ cm/s | 73.8 ± 8.16 ×10⁻⁶ cm/s | CC[C@]1(O)C[C@@H]2CN(CCc3c([nH]c4ccccc34)[C@@](C(=O)OC)(c3cc4c(cc3OC)N(C)[C@H]3[C@@](O)(C(=O)OC)[C@H](OC(C)=O)[C@]5(CC)C=CCN6CC[C@]43[C@@H]65)C2)C1 [Vinblastine] | 0.0519 µM | 2 fold | 52.90 ± 4.30 pg/mL | 1.11 fold | 73.60 ± 2.30 pg/mL | 1.42 fold | 140.20 ± 14.40 pg/mL | 1.40 fold | 284.90 ± 18.00 pg/mL | 1.08 fold | Elevation of AP-BL permeability by moxifloxacin (MDR1 [10]): 2.55 fold |
